From patent US5041441A, “Method of chemotherapy using 1-phenyl-2-decanoylamino-3-morpholino-1-propanol” (The Regents of the University of Michigan, priority 1988, dated 1991)

Tests used:
[1] = test system: Ehrlich ascites tumor cells (EATC); test: Antitumor activity in mice inoculated i.p. with Ehrlich ascites tumor cells; format: in vivo; conditions: for Median T/C ratio / Number of cured mice at 60 days / Number of cured mice at 90 days / Surviving at 60 days (cured mice and mice bearing a solid tumor) / Surviving at 90 days (cured mice and mice bearing a solid tumor): acetate salt i.p.; for Surviving at 10 days / Body weight change (mean, end of 10 days): mouse, in vivo, ip
Method: Male mice of the ICR (Swiss Hsd) strain from Harlan--Sprague Dawley (Indianapolis, Ind.) were injected intraperitoneal with saline containing 2×10^6 Ehrlich ascites tumor cells (EATC) on day 0. […] Treatment began 24 hours later with intraperitoneal injections of saline or inhibitor, either as the acetate salt or as the hydrochloride salt. The inhibitor was dissolved in 40° C. saline and injected at 10 μl/g body weight. In the case of drugs that were difficult to dissolve, e.g. the hydrochlorides, a non-ionic, low toxicity detergent was included to emulsify the drug, making it suitable for injection. Two cages of mice were assigned to each control or experimental group and fed standard lab chow. In almost all cases, the mice were injected daily for a total of 10 doses.
The 1-tailed Student t-test for unpaired samples was used for statistical analysis.
The experimental procedure set forth above was again followed with homologs of PDMP made from fatty acids of 10 to 18 carbon atom length. The compounds were not resolved into D- and L-forms but the threo stereomers were used as the hydrochlorides. All samples were emulsified in Myrj 52 (15 mg/kg).

[2] = Toxicity test in normal, noncancerous mice; format: in vivo
Method: Ten normal, noncancerous mice were injected with D-threo-PDMP daily for 10 days, then killed 5 hours later with the results set forth in Table 4.
The preceding experiment was repeated in order to observe less evancescent responses: the mice were killed 40 hours after the last injection following 12 daily injections. Here, of the absolute weights, only the kidneys were statistically different in treated mice, 11% smaller (p less than 0.05%). Comparing the 40 hour and 5 hour experiments it seems likely that the liver weights renormalized faster than the kidneys, perhaps a reflection of faster glucolipid turnover.
This failure to harm the bone marrow and related systems compares favorably with the high toxicity of many antineoplastics.

[3] = target: T1, glucosyltransferase (EATC enzyme) (Mus musculus, UniProt O88693); test: Glucosyltransferase assay, microsomes from EATC; format: biochemical
T1 construct: Microsomes from EATC (0.50 mg protein) required 20 μM PDMP to reduce the glucosyltransferase activity in half; endogenous in cells; host or cells: Ehrlich ascites tumor cells (EATC), microsomes
T1 sequence (O88693 1-394): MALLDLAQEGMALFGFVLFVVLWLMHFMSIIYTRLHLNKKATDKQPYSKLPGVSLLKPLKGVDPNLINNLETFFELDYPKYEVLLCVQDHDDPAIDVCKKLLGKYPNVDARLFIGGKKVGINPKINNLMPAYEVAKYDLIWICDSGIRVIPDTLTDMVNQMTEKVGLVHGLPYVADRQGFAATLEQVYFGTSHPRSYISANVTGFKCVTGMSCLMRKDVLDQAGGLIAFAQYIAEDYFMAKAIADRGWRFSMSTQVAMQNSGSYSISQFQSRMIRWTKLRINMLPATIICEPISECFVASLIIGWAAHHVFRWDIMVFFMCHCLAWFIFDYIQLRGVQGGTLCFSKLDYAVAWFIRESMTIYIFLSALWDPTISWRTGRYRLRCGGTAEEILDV
Method: Evidence that D-threo-PDMP acts to inhibit GlcCer biosynthesis was provided as follows from assay of glucosyltransferase. Microsomes as source of enzyme were prepared by highspeed centrifugation and stored at -70° C. before use. The incubations were at 37° C. for 30 minutes with microsomes, ATP, liposomal octanoyl sphingosine, UDP-[^3 H]glu, Mg^2+, and dithioerythritol. Microsomes from EATC (0.50 mg protein) required 20 μM PDMP to reduce the glucosyltransferase activity in half. The microsomes from normal liver (72 μg protein) required 5 μM D-threo-PDMP. While the EATC enzyme seems to be less sensitive to the inhibitor, the intraperitoneal concentration of inhibitor is initially very high.

Ehrlich ascites cells = test: Growth of Ehrlich ascites cells in vivo (volume of packed cells); conditions: treatment begun 3 days after EATC inoculation, 5 injections, killed 1 day later; 100 mg/kg
Method: A suspension of GlcCer was injected into one group of 10 mice inoculated 1 day earlier with EATC as before. Injectable suspensions of GlcCer and galactosylceramide (GalCer) were prepared by mechanical grinding in saline (10 mg/ml) and injected at a dosage of 100 mg/kg. In one experiment, the mice were killed 1 day after the last of eight daily injections and the ascites cells were flushed out of the abdomen with buffered saline and washed.
Treatments were begun 3 days after EATC inoculation. Only 5 injections were given and the mice were killed 1 day later.

[4] = 2 × 250 mg/kg/day, days 1-5, 1 × 150, days 6-10
[5] = 100 mg/kg/day, 10 injections, killed 5 hours later

In the case of `CCCCCCCCCC(=O)N[C@H](CN1CCOCC1)[C@H](O)c1ccccc1` [D-threo-PDMP, 1-Phenyl-2-Decanoylamino-3-Morpholino-1-Propanol], the “Median T/C ratio” value ([1]; 1 × 100 mg/kg/day, days 1-10) is reported as 191%, the “Number of cured mice at 60 days” value ([1]; 1 × 100 mg/kg/day, days 1-10) is reported as 4 and the “Number of cured mice at 90 days” value ([1]; 1 × 100 mg/kg/day, days 1-10) is reported as 4. The “Surviving at 60 days (cured mice and mice bearing a solid tumor)” value (“Surviving at 60 days” below) ([1]; 1 × 100 mg/kg/day, days 1-10) was 7, the “Surviving at 90 days (cured mice and mice bearing a solid tumor)” value (shortened to “Surviving at 90 days”) ([1]; 1 × 100 mg/kg/day, days 1-10, mice with solid tumors killed before 90 days) was 4 and the “Median T/C ratio” value ([1]; 1 × 150 mg/kg/day, days 1-10) was 319%. The “Number of cured mice at 60 days” value ([1]; 1 × 150 mg/kg/day, days 1-10) was 3, the “Number of cured mice at 90 days” value ([1]; 1 × 150 mg/kg/day, days 1-10) was 3 and the “Surviving at 60 days” value ([1]; 1 × 150 mg/kg/day, days 1-10) was 7. For the same molecule, the “Surviving at 90 days” value ([1]; 1 × 150 mg/kg/day, days 1-10) was 5, the “Median T/C ratio” value ([1]; 2 × 100 mg/kg/day, days 1-5) was 238% and the “Number of cured mice at 60 days” value ([1]; 2 × 100 mg/kg/day, days 1-5) was 3. The “Number of cured mice at 90 days” value ([1]; 2 × 100 mg/kg/day, days 1-5) was 3, the “Surviving at 60 days” value ([1]; 2 × 100 mg/kg/day, days 1-5) was 5 and the “Surviving at 90 days” value ([1]; 2 × 100 mg/kg/day, days 1-5, mice with solid tumors killed before 90 days) was 3. For the same molecule, the “Median T/C ratio” value [1, 4] was 150%, the “Number of cured mice at 60 days” value [1, 4] was 3 and the “Number of cured mice at 90 days” value [1, 4] was 3. For the same molecule, the “Surviving at 60 days” value [1, 4] was 5, the “Surviving at 90 days” value [1, 4] was 5 and the “Percentage surviving for 60 days” value ([1]; dose response test, 75 mg/kg) was 10%. For the same molecule, the “Percentage surviving for 60 days” value ([1]; dose response test, 100 mg/kg) was 20%, the “Percentage surviving for 60 days” value ([1]; dose response test, 125 mg/kg) was 50% and the “Time of death compared with controls” value ([1]; dose response test, 25 or 50 mg/kg) was “died at about the same time as the controls”. For the same molecule, the “Mice still alive and healthy more than 5 months after inoculation” value ([1]; dose response test, two most-heavily dosed groups) was 40%, the “Surviving at 10 days” value ([1]; 100 mg/kg/day) was 10/10 and the “Body weight change (mean, end of 10 days)” value ([1]; 150 mg/kg/day) was -0.36 g. For the same molecule, the “Surviving at 10 days” value ([1]; 150 mg/kg/day) was 10/10, the “Body weight change (mean, end of 10 days)” value ([1]; 250 mg/kg/day) was -3.49 g and the “Surviving at 10 days” value ([1]; 250 mg/kg/day) was 8/9. The Mice completely cured ([1]; variety of regimens) was “About 30%”, the “Average body weight gain of treated mice” value ([2]; 100 mg/kg/day, 10 injections, controls gained 4.5 g) was 2.1 g and the “Body weight smaller than controls” value [2, 5] was 8%. The “Brain Weight” value [2, 5] was 0.444 g, the “Brain Weight (% of body)” value [2, 5] was 1.67 % of body and the “Kidney Weight” value [2, 5] was 0.329 g. For the same molecule, the “Kidney Weight (% of body)” value [2, 5] was 1.24 % of body, the “Kidney weight smaller than controls” value [2, 5] was 17% and the “Liver Weight” value [2, 5] was 1.32 g. For the same molecule, the “Liver Weight (% of body)” value [2, 5] was 4.97 % of body, the “Liver weight smaller than controls” value [2, 5] was 18% and the “Spleen Weight” value [2, 5] was 0.095 g. The “Spleen Weight (% of body)” value [2, 5] was 0.36 % of body, the “Spleen size compared with controls” value [2, 5] was “slightly but not significantly smaller” and the “Body Weight” value ([2]; 100 mg/kg/day, 10 injections, killed 5 hours later, initial mean 24.4 g) was 26.5 g. The “Brain weight smaller than controls” value ([2]; 100 mg/kg/day, 10 injections, killed 5 hours later, p less than 0.025) was 4.6%, the “Cell counts on orbital blood (RBC, WBC, differential monocytes, lymphocytes, eosinophiles, neutrophils)” value ([2]; 12 daily injections) was “no abnormalities” and the “Kidney weight (absolute) smaller than controls” value ([2]; 12 daily injections, killed 40 hours after the last injection) was 11%. The IC50 [3] was 20 µM, the “Volume of packed cells” value (Ehrlich ascites cells) was 1.68 ± 0.86 ml/mouse and the “Volume of packed cells, % of controls” value (Ehrlich ascites cells) was 62 % of controls.
